Experimental findings from ChEMBL document CHEMBL3044731, “Insecticidal Effects of Organotin(IV) Compounds on Plutella Xylostella (L.) Larvae. II. Inhibitory Potencies Against Acetylcholinesterase and Evidence for Synergism in Tests With Bacillus Thuringiensis(BER.) and Malathion” (Met Based Drugs, 1994) are described below.

Several values for one entry are separate records, joined by “and”; a condition that tells them apart may be missing. Identical values can stand only once.

T1 sequence (Q8MZM0 whole entry): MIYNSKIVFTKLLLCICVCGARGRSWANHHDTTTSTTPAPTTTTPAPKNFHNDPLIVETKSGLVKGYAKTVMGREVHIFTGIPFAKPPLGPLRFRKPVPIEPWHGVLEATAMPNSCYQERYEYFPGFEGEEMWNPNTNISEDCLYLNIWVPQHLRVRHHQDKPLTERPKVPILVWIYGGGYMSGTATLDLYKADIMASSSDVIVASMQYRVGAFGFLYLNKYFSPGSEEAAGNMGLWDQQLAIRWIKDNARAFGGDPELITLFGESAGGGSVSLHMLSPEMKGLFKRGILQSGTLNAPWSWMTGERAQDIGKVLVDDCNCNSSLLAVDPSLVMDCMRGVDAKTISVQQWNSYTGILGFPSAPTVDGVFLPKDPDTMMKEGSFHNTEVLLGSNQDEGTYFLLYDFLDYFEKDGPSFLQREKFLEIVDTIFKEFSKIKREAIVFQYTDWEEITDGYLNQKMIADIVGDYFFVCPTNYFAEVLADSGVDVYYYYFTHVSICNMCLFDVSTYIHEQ

The first test deals with Acetylcholinesterase (Plutella xylostella) (UniProt Q8MZM0). The experiment in a line: Inhibition of AChE in drug-resistant Plutella xylostella (diamondback moth) fourth-instar larvae homogenates at 0.1 mM using acetylthiocholine iodide substrate by colorimetric method.
Chain of Acetylcholinesterase (Plutella xylostella) (Q8MZM0 entry or part of it): as the sequence (Q8MZM0 whole entry) above
Settings: not given
As to “(4-chlorophenyl)diphenylstannyl 2-(phenylcarbamoylthio)acetate”, the inhibition was 15.8%.
On the same count and under the same terms, the figure for “S-triphenylstannyl piperidine-1-carbothioate” is 14.8%; for “TRIPHENYLSTANNYL 2-(PHENYLCARBAMOYLTHIO)ACETATE” it is 31.1%.
In the case of TRIPHENYLSTANNYL 2-([sequence])ACETATE, the inhibition was 27.6% and 31.8% and 42.1%.
On to “triphenylstannyl 2-(2,4-dichlorophenylcarbamoylthio)acetate”, for which the inhibition is 13.4%.
In turn, “triphenylstannyl 2-(4-chlorophenylcarbamoylthio)acetate” gave an inhibition of 74.6%.
In turn, “triphenylstannyl 2-(piperidine-1-carbonylthio)acetate” had an inhibition of 24.4%.
“triphenylstannyl 6-(piperidine-1-carbonylthio)hexanoate” came in with an inhibition of 27%.

A further test addresses T1, Acetylcholinesterase (Plutella xylostella, UniProt Q8MZM0). The experiment in a line: Inhibition of AChE in drug-sensitive Plutella xylostella (diamondback moth) fourth-instar larvae homogenates using acetylthiocholine iodide substrate by colorimetric method. Particulars: read-out: I50.
Consider “TRIPHENYLSTANNYL 2-(DIMETHYLCARBAMOTHIOYLTHIO)ACETATE”, for which the IC50 came to 26.2 mM.
Still for that read-out and setting: under “TRIPHENYLSTANNYL 2-(DIMETHYLCARBAMOYLTHIO)ACETATE” stands 0.00543 mM.

A further test concerns Plutella xylostella. In words: Insecticidal activity against drug-resistant Plutella xylostella (diamondback moth) fourth-instar larvae exposed to compound through topical application followed by transfer onto fresh Brassica leaves assessed as insect mortality measured 48 hr post compound application. Format: functional.
Settings: not given
With “1-(cyclopentyldiphenylstannyl)-1H-1,2,4-triazole”, the LD50 worked out at 7.85 ×10⁻³ mol/L.
Turning to “1-(dicyclopentyl(phenyl)stannyl)-1H-1,2,4-triazole”, the LD50 was found to be 2.37 ×10⁻³ mol/L.
With “1-(tricyclopentylstannyl)-1H-1,2,4-triazole”, the LD50 was 0.27 ×10⁻³ mol/L.
Consider “4-(2-oxo-2-(triphenylstannyloxy)ethoxy)benzoic acid”, for which the LD50 came to 0.69 ×10⁻³ mol/L.
Still for that read-out and setting: the figure for “5-(triphenylstannylthio)-1,3,4-thiadiazol-2-amine” is 2.31 ×10⁻³ mol/L; for `CCOC(=O)CC(SP(=S)(OC)OC)C(=O)OCC` (configuration not stated) [MALATHION] it is 42.6 ×10⁻³ mol/L; for `CNC(=O)ON=C(C)SC` [METHOMYL] it is 1.43 ×10⁻³ mol/L.
“(4-chlorophenyl)diphenylstannyl 2-(dimethylcarbamothioylthio)acetate”: the LD50 was 2.36 ×10⁻³ mol/L.
As for DICYCLOPENTYL(PHENYL)STANNANOL, the LD50 is 3.7 ×10⁻³ mol/L.
The same measure, in the same setting: under METHYL TRIPHENYLSTANNYL OXALATE stands 4.5 ×10⁻³ mol/L; under “TRIPHENYLSTANNYL 2-(PHENYLCARBAMOYLTHIO)ACETATE”, 1.5 ×10⁻³ mol/L; under TRIPHENYLSTANNYL 2-([sequence])ACETATE, 3.23 ×10⁻³ mol/L and 1.8 ×10⁻³ mol/L.
With “TRIPHENYLSTANNYL 2-([sequence])ACETATE HYDRATE”, the LD50 was determined as 24 ×10⁻³ mol/L.
TRIPHENYLSTANNYL 2-([sequence])BENZOATE: the LD50 was 2.06 ×10⁻³ mol/L.
With TRIPHENYLSTANNYL 4-OXOPENTANOATE, the LD50 worked out at 6.95 ×10⁻³ mol/L.
TRIPHENYLSTANNYL ACETATE: the LD50 is 6.06 ×10⁻³ mol/L.
On to [sequence] 2-([sequence])ACETATE, for which the LD50 came out at 1.78 ×10⁻³ mol/L.
Still for that read-out and setting: the figure for “tricyclohexylstannyl 2-(piperidine-1-carbonothioylthio)acetate” is 0.18 ×10⁻³ mol/L.
With “tricyclohexylstannyl 2-(quinolin-8-yloxy)acetate”, the LD50 was found to be 0.57 ×10⁻³ mol/L.
Consider “triphenylstannyl 2-(4-chlorophenoxy)acetate”, for which the LD50 was 2.26 ×10⁻³ mol/L.
On the same count and under the same terms, under “triphenylstannyl 2-(4-chlorophenylcarbamoylthio)acetate” stands 0.9 ×10⁻³ mol/L.
For “triphenylstannyl 2-(4-nitrophenoxy)acetate”, the LD50 was 4.38 ×10⁻³ mol/L.
On the same count and under the same terms, the figure for “triphenylstannyl 2-((2-isopropyl-5-methylcyclohexyloxy)carbonothioylthio)acetate” is 3.62 ×10⁻³ mol/L; for “triphenylstannyl 2-(morpholine-4-carbonothioylthio)acetate” it is 1.66 ×10⁻³ mol/L.
Still for that read-out and setting: the figure for “triphenylstannyl 4-(2-carbamoylhydrazono)pentanoate” is 2.22 ×10⁻³ mol/L; for “triphenylstannyl 4-oxo-4-phenylbutanoate” it is 1.84 ×10⁻³ mol/L.

For a further test, the target named is T1, Acetylcholinesterase. In words: Inhibition of AChE in drug-resistant Plutella xylostella (diamondback moth) fourth-instar larvae homogenates using acetylthiocholine iodide substrate by colorimetric method. Particulars: read-out: I50.
In the case of “TRIPHENYLSTANNYL 2-(DIMETHYLCARBAMOYLTHIO)ACETATE”, the IC50 is 13.1 mM.
